Laboratory results published in patent publication US10464890B2, “PGAM1 inhibitors and methods related thereto” (Emory University, priority 2011, dated 2019).

Columns and labels:
[1] = molecular target: T1, PHGDH (PGAM1 knockdown cell lysates or recombinant PHGDH) (Homo sapiens, UniProt O43175); assay: PHGDH enzyme assay; type: biochemical
T1 construct: endogenous in cells; also recombinant rPHGDH of unstated origin
T1 sequence (O43175 1-533): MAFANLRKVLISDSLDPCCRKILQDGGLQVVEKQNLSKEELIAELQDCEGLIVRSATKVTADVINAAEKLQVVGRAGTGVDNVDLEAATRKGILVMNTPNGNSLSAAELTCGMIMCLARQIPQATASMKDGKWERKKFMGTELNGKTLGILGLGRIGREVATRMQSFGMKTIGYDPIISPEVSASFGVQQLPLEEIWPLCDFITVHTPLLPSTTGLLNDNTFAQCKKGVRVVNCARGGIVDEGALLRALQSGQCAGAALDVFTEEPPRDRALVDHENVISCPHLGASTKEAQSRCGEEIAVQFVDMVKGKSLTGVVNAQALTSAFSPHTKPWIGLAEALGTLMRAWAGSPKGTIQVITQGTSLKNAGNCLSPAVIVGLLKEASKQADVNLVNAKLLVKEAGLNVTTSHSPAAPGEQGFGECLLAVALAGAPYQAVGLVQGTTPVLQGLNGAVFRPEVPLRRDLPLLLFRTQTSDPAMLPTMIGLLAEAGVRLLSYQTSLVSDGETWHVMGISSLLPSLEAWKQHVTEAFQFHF
Description: PHGDH activity was spectrophotometrically measured as described previously. PHGDH enzyme buffer containing 200 mM Tris-HCl (pH8.1), 400 mM KCl, 0.6 mM NAD, 2 mM GSH, 10 mM EDTA was mixed with cell lysates or recombinant PHGDH protein. The reaction was initiated by the addition of 3-PG to a final concentration of 10 mM and followed by measuring the increase in absorbance at 340 nm over a 10 min period.

[2] = molecular target: T2, 6PGD (H1299 cell lysates or recombinant 6PGD) (Homo sapiens, UniProt P52209); assay: 6PGD enzyme assay; type: biochemical
T2 construct: endogenous in cells; host or cells: H1299 cell lysates; part of the results with recombinant 6PGD of unstated origin
T2 sequence (P52209 1-483): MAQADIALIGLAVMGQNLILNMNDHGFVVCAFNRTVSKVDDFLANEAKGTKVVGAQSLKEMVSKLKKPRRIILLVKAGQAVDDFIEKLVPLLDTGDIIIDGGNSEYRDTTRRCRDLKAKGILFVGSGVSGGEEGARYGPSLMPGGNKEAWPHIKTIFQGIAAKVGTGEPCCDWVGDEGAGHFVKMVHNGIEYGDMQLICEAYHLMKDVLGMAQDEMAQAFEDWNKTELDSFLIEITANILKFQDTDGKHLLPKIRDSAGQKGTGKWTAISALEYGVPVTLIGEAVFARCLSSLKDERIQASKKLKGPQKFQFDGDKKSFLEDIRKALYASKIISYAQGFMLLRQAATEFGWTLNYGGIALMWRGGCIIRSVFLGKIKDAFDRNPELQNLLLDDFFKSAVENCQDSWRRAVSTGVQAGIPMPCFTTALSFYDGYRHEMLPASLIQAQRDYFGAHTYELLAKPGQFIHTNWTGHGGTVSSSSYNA
Description: (§1) G6PD activity was determined by the NADPH production rate from G6PD and 6PGD, then subtracting that of 6PGD, since a product of G6PD, 6-phosphogluconolactone, is rapidly hydrolyzed to a substrate of 6PGD, 6-phosphogluconate, in cells. To obtain the combined dehydrogenase activity, substrates for both dehydrogenase enzymes were added to a cuvette. In another cuvette, substrates for the second enzyme, 6PGD, were added to obtain the activity of this enzyme. Substrate concentrations were as follows: 0.2 mM glucose 6-phosphate, 0.2 mM 6-phosphogluconate, and 0.1 mM NADP^+. 10 μg of cell lysates or 1 μg of recombinant protein were added to a cuvette containing buffer (50 mM Tris, 1 mM MgCl2, pH 8.1) and then the reaction was initiated by NADP^+. The increase of absorbance at 341 nm was measured by a DU800 spectrophotometer (Beckman).

[3] = molecular target: T3, 6PGD (Homo sapiens, UniProt P52209); type: binding
T3 sequence (P52209 1-483): T2 sequence (P52209 1-483)
Description: In brief, thermal shift assay of compound-protein interaction was performed in 384-well PCR plates with various compound concentrations and 200 μg/ml protein in a buffer solution (20 mM Tris-HCl, 100 mM NaCl, pH 7.4). SYPRO orange was used as a dye to monitor the fluorescence change at 610 nm. Small molecules were dissolved in DMSO and added to protein solution. Final DMSO concentration of solution is 1%. Dissociation constants (Kds) for protein-ligand interaction were calculated using the method as described.
The fluorescence intensity data were fitted to Eq. (1) to obtain ΔHu, ΔCpu, and Tm by nonlinear regression using the program Prism:
The thermal unfolding parameters for 6PGD and PGAM1 alone were determined from 4 control wells, each containing 0.2 mg/mL protein.

[4] = molecular target: T4, G6PD (H1299 cell lysates or rG6PD) (Homo sapiens, UniProt P11413); assay: G6PD enzyme assay; type: biochemical; conditions: increasing concentrations of 3-PG
T4 construct: endogenous in cells; host or cells: H1299 cell lysates; also recombinant rG6PD of unstated origin
T4 sequence (P11413 whole entry): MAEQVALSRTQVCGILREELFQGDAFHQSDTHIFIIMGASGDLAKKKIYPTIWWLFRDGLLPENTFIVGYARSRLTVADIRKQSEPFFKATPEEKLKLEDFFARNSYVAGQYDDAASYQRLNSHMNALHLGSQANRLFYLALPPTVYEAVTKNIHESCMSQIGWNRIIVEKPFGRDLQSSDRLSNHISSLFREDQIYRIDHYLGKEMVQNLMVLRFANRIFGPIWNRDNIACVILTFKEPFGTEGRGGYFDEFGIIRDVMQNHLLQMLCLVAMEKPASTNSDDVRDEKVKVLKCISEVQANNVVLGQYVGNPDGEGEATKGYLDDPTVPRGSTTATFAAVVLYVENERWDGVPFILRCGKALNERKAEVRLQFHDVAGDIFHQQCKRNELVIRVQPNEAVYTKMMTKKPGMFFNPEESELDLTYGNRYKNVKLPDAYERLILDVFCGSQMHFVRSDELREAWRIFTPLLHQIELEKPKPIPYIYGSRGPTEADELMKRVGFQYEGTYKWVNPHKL
Description: as §1

[5] = tested on: Y26 phosphorylation of PGAM1; assay: PGAM1 Y26 phosphorylation in human cancer cell lines; type: cell-based; conditions: pertinent human cancer cell lines (KG1a, HEL)
[6] = molecular target: PGAM1 (Homo sapiens, UniProt P18669); conditions: cited from earlier work
PGAM1, sequence (P18669 whole entry): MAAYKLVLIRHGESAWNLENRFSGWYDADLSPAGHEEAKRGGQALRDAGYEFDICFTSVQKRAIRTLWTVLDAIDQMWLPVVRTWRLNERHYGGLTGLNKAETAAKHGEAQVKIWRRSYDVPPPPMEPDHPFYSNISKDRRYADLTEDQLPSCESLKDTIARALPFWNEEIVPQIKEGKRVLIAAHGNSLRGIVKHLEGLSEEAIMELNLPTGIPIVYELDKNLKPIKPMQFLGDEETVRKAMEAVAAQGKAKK

[7] = molecular target: T5, purified human PGAM1 proteins (recombinant PGAM1) (Homo sapiens, UniProt P18669); assay: In vitro PGAM1 enzyme assay (coupled enolase/PKM1/LDH, NADH oxidation); type: biochemical; conditions: for relative PGAM1 inhibitory potency in vitro: purified recombinant PGAM1, comparison among alizarin, alizarin Red S and PGMI-004A; for screening outcome (PGAM1 primary screen, enolase secondary screen): library screen with coupled PGAM1 and enolase assays
T5 construct: (His)6; made in house; host or cells: E. coli BL21(DE3)pLysS (pET53 vector)
T5 sequence (P18669 whole entry): as above
Description: An in vitro PGAM1 assay was performed as primary screening. PGAM1 enzyme mix was prepared containing 100 mM Tris-HCl, 100 mM KCl, 5 mM MgCl2, 1 mM ADP, 0.2 mM NADH, 5 mg/ml recombinant PGAM1, 0.5 units/ml enolase, 0.5 units/ml recombinant pyruvate kinase M1, and 0.1 units/ml recombinant LDH. 3-PG was added last at the final concentration of 2 mM to initiate the reaction. […] An in vitro enolase assay as secondary screening was also performed. Enolase enzyme mix was prepared containing 100 mM Tris-HCl, 100 mM KCl, 5 mM MgCl2, 1 mM ADP, 0.2 mM NADH, 0.5 units/ml enolase, 0.5 units/ml recombinant pyruvate kinase M1, and 0.1 units/ml recombinant LDH. 2-PG was added last at the final concentration of 2 mM to initiate the reaction. […] Assay was carried out in Tris-HCl buffer (10 mM Tris, pH 7.4, 100 mM NaCl) containing 5% DMSO.
PGAM1 activity was measured by multiple enzymes coupled assay. PGAM1 enzyme mix containing 100 mM Tris-HCl, 100 mM KCl, 5 mM MgCl2, 1 mM ADP, 0.2 mM NADH, 5 mg/ml recombinant PGAM1, 0.5 units/ml enolase, 0.5 units/ml recombinant pyruvate kinase M1, and 0.1 units/ml recombinant LDH was prepared. 3-PG was added last at a final concentration of 2 mM to initiate the reaction.

[8] = tested on: human leukemia KG1a cells; assay: Cell proliferation/viability assay, KG1a; type: cell-based; conditions: increasing concentrations (72h)
Description: For leukemia cell proliferation assay, 10×10^4 cells were seeded in non-tissue culture coated 6-well plate and incubated at 37° C. for indicated times. Cell numbers were counted by trypan blue exclusion under a microscope (×40) at indicated times and the percentage of cell proliferation was determined by comparing PGAM1 knockdown cells to pLKO.1 vector expressing cells. […] Cell viability was determined by counting drug-treated cells compared to DMSO-treated control cells with trypan blue exclusion under a microscope (×40) and by using CellTiter96Aqueous One solution proliferation kit (Promega). For adherent cell proliferation assay such as H1299 and MDA-MB231 cells, 5×10^4 cells were seeded in 6-well plate 24 h before the assay starts and were cultured at 37° C. 24 h after seeding, cells were treated with 5 μM Methyl-2PG and incubated at 37° C. for indicated times. Cell proliferation was determined by the increase in cell number indicated times after the treatment starts compared to that at the treatment starts for each cell line (T=0). Cell numbers were counted by trypan blue exclusion under a microscope (×40). […] Cell viability was determined by counting drug-treated cells compared to DMSO-treated control cells with trypan blue exclusion under a microscope (×40). […] Cell viability was determined by using CellTiter96Aqueous One solution proliferation kit (Promega).

[9] = tested on: H1299 cells; assay: Cell proliferation assay, H1299; type: cell-based, human; conditions: H1299 cells
Description: For leukemia cell proliferation assay, 10×10^4 cells were seeded in non-tissue culture coated 6-well plate and incubated at 37° C. for indicated times. Cell numbers were counted by trypan blue exclusion under a microscope (×40) at indicated times and the percentage of cell proliferation was determined by comparing PGAM1 knockdown cells to pLKO.1 vector expressing cells. […] Cell viability was determined by counting drug-treated cells compared to DMSO-treated control cells with trypan blue exclusion under a microscope (×40) and by using CellTiter96Aqueous One solution proliferation kit (Promega). For adherent cell proliferation assay such as H1299 and MDA-MB231 cells, 5×10^4 cells were seeded in 6-well plate 24 h before the assay starts and were cultured at 37° C. 24 h after seeding, cells were treated with 5 μM Methyl-2PG and incubated at 37° C. for indicated times. Cell proliferation was determined by the increase in cell number indicated times after the treatment starts compared to that at the treatment starts for each cell line (T=0). Cell numbers were counted by trypan blue exclusion under a microscope (×40). For adherent cell viability assay with trypan blue exclusion, 5×10^4 cells were seeded in 6-well plate 24 h before the assay starts and were cultured at 37° C. […] Cell viability was determined by counting drug-treated cells compared to DMSO-treated control cells with trypan blue exclusion under a microscope (×40). For MTT cell viability assay of adherent cells, 5×10^3 cells were seeded in 96-well plate 24 h before the assay starts and were cultured at 37° C. […] Cell viability was determined by using CellTiter96Aqueous One solution proliferation kit (Promega).

With `O=C(O)[C@@H](CO)OP(=O)(O)O` [2-PG, 2-phosphoglycerate] the “enzyme activity of recombinant PHGDH (rPHGDH)” value ([1]; increasing concentrations of 2-PG) was “increased enzyme activity of recombinant PHGDH”, the PHGDH activity ([1]; ~15 μM 2-PG) was “did not significantly affect PHGDH activity” and the PHGDH enzyme activity ([1]; ~45 μM or ~60 μM 2-PG, H1299 PGAM1 knockdown cell lysates) was “higher PHGDH enzyme activity”. For the same compound, the 6PGD enzyme activity ([2]; 2-PG treatment, H1299 cell lysates or r6PGD) was “did not affect 6PGD enzyme activity”.

With `O=C(O)[C@H](O)COP(=O)(O)O` [3-PG, 3-phosphoglycerate] the “6PGD melting temperature (Tm)” value ([3]; increasing concentrations, 100 μM to 25 mM) was “raises 6PGD melting temperature (Tm) in a dose-dependent manner”, the Kd ([3]; read-out: Kd for interaction with 6PGD) was 460 ± 40 µM and the Ki ([2]; Dixon plot, read-out: inhibition constant (Ki) for 6PGD) was 489 ± 13 µM. The “mode of 6PGD inhibition” value ([2]; Lineweaver-Burk plot, ~250 μM 3-PG, ~35 μM 6-PG) was “competitive inhibitor”, the 6PGD enzyme activity ([2]; ~60 μM 3-PG (physiological), H1299 cell lysates or recombinant 6PGD) was “do not significantly affect 6PGD enzyme activity” and the 6PGD enzyme activity ([2]; ~250 μM 3-PG, H1299 cell lysates or recombinant 6PGD) was “decreased enzyme activity of 6PGD”. For the same compound, the G6PD activity [4] was “did not significantly affect G6PD activity”.

In the case of `N#C/C(=C/c1ccc(O)c(O)c1)C(=O)NCc1ccccc1` [AG490], the “Y26 phosphorylation of PGAM1” value [5] is reported as “decreased Y26 phosphorylation of PGAM1”.

In the case of `C#CCCCC(=O)OC(C)(C)C1CCC2(CO2)C(OC(=O)NC(Cc2c[nH]c3ccccc23)C(=O)OCc2ccccc2)C1` (stereo not shown) [MJE3], the “PGAM1 activity (reported)” value ([6]; Evans et al., 2007, 2005) is given as “specifically inhibits PGAM1 activity exclusively in intact cells” and the “cancer cell proliferation (reported)” value [6] is given as “attenuates cancer cell proliferation”.

With `CN1CCN(c2ccc3nc(-c4c(N)c5c(F)cccc5[nH]c4=O)[nH]c3c2)CC1` [TKI258] the “Y26 phosphorylation of PGAM1” value [5] was “decreased Y26 phosphorylation of PGAM1”.

For `O=C1c2ccccc2C(=O)c2c1cc(S(=O)(=O)O)c(O)c2O` [alizarin Red S, 3,4-dihydroxy-9,10-dioxo-9,10-dihydroanthracene-2-sulfonic acid], the “relative PGAM1 inhibitory potency in vitro” value [7] was “more potent PGAM1 inhibitory potential compared to alizarin” and the “relative PGAM1 inhibitory potency in vitro” value ([7]; listed as Alizarin Red S) was “more potent PGAM1 inhibitor”.

For `O=C1c2ccccc2C(=O)c2c1ccc(O)c2O` [alizarin, 1,2-Dihydroxyanthraquinone], the “screening outcome (PGAM1 primary screen, enolase secondary screen)” value (“screening outcome” below) [7] was “identified as PGAM1 inhibitors”, the cell proliferation [8] was “decreased proliferation” and the cell proliferation [9] was “decreased proliferation”.

For `Oc1c(Cl)cc(Cl)c(Cl)c1Cc1c(O)c(Cl)cc(Cl)c1Cl` [hexachlorophene], the “screening outcome” value [7] was “identified as PGAM1 inhibitors”.

With `O=CC=Cc1ccc(O)cc1` [p-hydroxycinnamaldehyde] the “screening outcome” value [7] was “identified as PGAM1 inhibitors”.
